This passage reports IC50 results from patent US9062048B2, “Cyclohexyl-azetidinyl antagonists of CCR2” (Janssen Pharmaceutica NV, priority 2010, dated 2015).

For the assay, the target named is CCR2 (Homo sapiens (Human), UniProt P41597). Briefly: MCP-1 Receptor Binding Assay in THP-1 Cells.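 Note: THP-1 is a human monocytic cell line, and nonspecific binding was defined with 1 µM unlabeled MCP-1.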 To be noted: 0.5 nM 125I labeled MCP-1, 2 hours at 30° C., read-out: Inhibition of MCP-1 Binding IC50 MCP1B.
Sequence of CCR2 (P41597 whole entry): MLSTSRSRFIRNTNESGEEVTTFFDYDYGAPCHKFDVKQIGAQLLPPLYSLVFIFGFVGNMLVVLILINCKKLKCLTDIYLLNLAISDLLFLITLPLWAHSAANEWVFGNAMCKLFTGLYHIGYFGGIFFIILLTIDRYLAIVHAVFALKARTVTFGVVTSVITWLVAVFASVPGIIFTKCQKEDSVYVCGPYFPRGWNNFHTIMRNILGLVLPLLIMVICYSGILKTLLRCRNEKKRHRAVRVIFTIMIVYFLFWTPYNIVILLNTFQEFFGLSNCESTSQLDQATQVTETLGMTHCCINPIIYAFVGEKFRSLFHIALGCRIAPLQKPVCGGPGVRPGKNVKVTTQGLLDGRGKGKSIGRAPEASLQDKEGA

As for `CCC(O)[C@H]1CC[C@@H](N2CC(NC(=O)CNc3cnnc4ccc(C(F)(F)F)cc34)C2)CC1` (stereo partly drawn) [Example 152, N-(1-(4-(1-hydroxypropyl)cyclohexyl)azetidin-3-yl)-2-(6-(trifluoromethyl)cinnolin-4-ylamino)acetamide], the IC50 – broadly, the concentration that gives 50% inhibition – was determined as 530 nM.

Turning to `O=C(CNc1ncnc2ccc(C(F)(F)F)cc12)NC1CN([C@H]2CC[C@@H](CCO)CC2)C1` [Example 108, N-(1-((1s,4s)-4-(2-hydroxyethyl)cyclohexyl)azetidin-3-yl)-2-((6-(trifluoromethyl)quinazolin-4-yl)amino)acetamide], the IC50 was 19 nM.

As to `CC(C)C(O)[C@H]1CC[C@@H](N2CC(NC(=O)CNc3ncnc4ccc(C(F)(F)F)cc34)C2)CC1` (stereo partly drawn) [Example 7, N-(1-((1S,4s)-4-(1-hydroxy-2-methylpropyl)cyclohexyl)azetidin-3-yl)-2-((6-(trifluoromethyl)quinazolin-4-yl)amino)acetamide], the IC50 stood at 9 nM.

For the compound `CC(C)c1nc(NCC(=O)NC2CN([C@H]3CC[C@@](O)(c4cncs4)CC3)C2)c2cc(C(F)(F)F)ccc2n1` [Example 88], the IC50 was found to be 7 nM.

Take `C=C[C@H]1CC[C@@H](N2CC(NC(=O)CNc3ncnc4ccc(C(F)(F)F)cc34)C2)CC1` [Example 9, 2-((6-(trifluoromethyl)quinazolin-4-yl)amino)-N-(1-((1s,4s)-4-vinylcyclohexyl)azetidin-3-yl)acetamide and 2-((6-(trifluoromethyl)quinazolin-4-yl)amino)-N-(1-((1r,4r)-4-vinylcyclohexyl)azetidin-3-yl)acetamide]: the IC50 amounted to 9 nM.

Turning to `CCC(O)(CC)[C@H]1CC[C@@H](N2CC(NC(=O)CNc3ncnc4ccc(C(F)(F)F)cc34)C2)CC1` [Example 30, N-(1-((1s,4s)-4-(3-hydroxypentan-3-yl)cyclohexyl)azetidin-3-yl)-2-((6-(trifluoromethyl)quinazolin-4-yl)amino)acetamide], the IC50 stood at 209 nM.

For `C#CC(O)[C@H]1CC[C@@H](N2CC(NC(=O)CNc3ncnc4ccc(C(F)(F)F)cc34)C2)CC1` (stereo partly drawn) [Example 95, N-(1-((1R,4s)-4-(1-hydroxyprop-2-yn-1-yl)cyclohexyl)azetidin-3-yl)-2-((6-(trifluoromethyl)quinazolin-4-yl)amino)acetamide], the IC50 came out at 28 nM.

Consider `CC(C)[C@@H](O)[C@H]1CC[C@@H](N2CC(NC(=O)CNc3nncc4ccc(C(F)(F)F)cc34)C2)CC1` (racemic) [Example 159, N-(1-((1R,4s)-4-((S)-1-hydroxy-2-methylpropyl)cyclohexyl)azetidin-3-yl)-2-((7-(trifluoromethyl)phthalazin-1-yl)amino)acetamide], for which the IC50 is 8290 nM.

`C=C(C)[C@H]1CC[C@@H](N2CC(NC(=O)CNc3ncnc4ccc(C(F)(F)F)cc34)C2)CC1` [Example 36, N-(1-((1s,4s)-4-(prop-1-en-2-yl)cyclohexyl)azetidin-3-yl)-2-((6-(trifluoromethyl)quinazolin-4-yl)amino)acetamide]: the IC50 was determined as 75 nM.

Regarding `O=C(CNc1ncnc2ccc(C(F)(F)F)cc12)NC1CN([C@H]2CC[C@@H](CN3CCCCC3=O)CC2)C1` [Example 54, N-(1-((1s,4s)-4-((2-oxopiperidin-1-yl)methyl)cyclohexyl)azetidin-3-yl)-2-((6-(trifluoromethyl)quinazolin-4-yl)amino)acetamide], the IC50 was found to be 720 nM.

With `CC(C)C(=O)NC[C@H]1CC[C@@H](N2CC(NC(=O)CNc3ncnc4ccc(C(F)(F)F)cc34)C2)CC1` [Example 114], the IC50 was found to be 280 nM.

Turning to `O=C(CNc1ncnc2ccc(C(F)(F)F)cc12)NC1CN([C@H]2CC[C@@H](C3CCCCC3)CC2)C1` [Example 102, N-(1-((1s,4s)-1^˜1,1′-bi(cyclohexan)1-4-yl)azetidin-3-yl)-2-((6-(trifluoromethyl)quinazolin-4-yl)amino)acetamide], the IC50 was 880 nM.

As to `CC(C)C(=O)N(C)[C@H]1CC[C@@H](N2CC(NC(=O)CNc3ncnc4ccc(C(F)(F)F)cc34)C2)CC1` [Example 43], the IC50 is 510 nM.

On to `O=C(CNc1ncnc2ccc(C(F)(F)F)cc12)NC1CN([C@H]2CC[C@@H](C3CCOC(=O)N3)CC2)C1` (stereo partly drawn) [Example 17, N-(1-((1R,4s)-4-(2-oxo-1,3-oxazinan-4-yl)cyclohexyl)azetidin-3-yl)-2-((6-(trifluoromethyl)quinazolin-4-yl)amino)acetamide], for which the IC50 worked out at 58 nM.

`O=C(CNc1cc(C(F)(F)F)nc2ccc(C(F)(F)F)cc12)NC1CN([C@H]2CC[C@@H](n3ccccc3=O)CC2)C1` [Example 59, 2-((2,6-bis(trifluoromethyl)quinolin-4-yl)amino)-N-(1-((1s,4s)-4-(2-oxopyridin-1(2H)-yl)cyclohexyl)azetidin-3-yl)acetamide]: the IC50 came out at 130 nM.

In the case of `O=C(CNc1ncnc2ccc(C(F)(F)F)cc12)N[C@H]1C[C@@H](N2CCC(O)(c3cncs3)CC2)C1` [Example 161, N-((1s,3s)-3-(4-hydroxy-4-(thiazol-5-yl)piperidin-1-yl)cyclobutyl)-2-((6-(trifluoromethyl)quinazolin-4-yl)amino)acetamide], the IC50 was greater than 25000 nM.

Turning to `O=C(CNc1ncnc2ccc(C(F)(F)F)cc12)NC1CN([C@H]2CC[C@@H](C3C=CCO3)CC2)C1` (stereo partly drawn) [Example 10, N-(1-((1R,4s)-4-(2,5-dihydrofuran-2-yl)cyclohexyl)azetidin-3-yl)-2-((6-(trifluoromethyl)quinazolin-4-yl)amino)acetamide and N-(1-((1R,4r)-4-(2,5-dihydrofuran-2-yl)cyclohexyl)azetidin-3-yl)-2-((6-(trifluoromethyl)quinazolin-4-yl)amino)acetamide], the IC50 stood at 9 nM.

On to `CC(C)(O)[C@H]1CC[C@@H](N2CC(NC(=O)CNc3ncnc4ccc(C(F)(F)F)cc34)C2)CC1` [Example 29, N-(1-((1s,4s)-4-(2-hydroxypropan-2-yl)cyclohexyl)azetidin-3-yl)-2-((6-(trifluoromethyl)quinazolin-4-yl)amino)acetamide], for which the IC50 was 33 nM.

Turning to `CCNC(=O)C1CCC(N2CC(NC(=O)CNc3ncnc4ccc(C(F)(F)F)cc34)C2)CC1` (stereo not drawn) [Example 127, N-ethyl-4-(3-(2-((6-(trifluoromethyl)quinazolin-4-yl)amino)acetamido)azetidin-1-yl)cyclohexanecarboxamide], the IC50 worked out at 200 nM.

`N#Cc1cc(NCC(=O)N[C@H]2C[C@H](N3CCC(O)(c4cncs4)CC3)C2)c2cc(C(F)(F)F)ccc2n1` [Example 164, 2-((2-cyano-6-(trifluoromethyl)quinolin-4-yl)amino)-N-((1r,3r)-3-(4-hydroxy-4-(thiazol-5-yl)piperidin-1-yl)cyclobutyl)acetamide]: the IC50 is greater than 25000 nM.

For `CN(C)CC(O)[C@H]1CC[C@@H](N2CC(NC(=O)CNc3ncnc4ccc(C(F)(F)F)cc34)C2)CC1` (stereo partly drawn) [Example 23, N-(1-((1S,4s)-4-(2-(dimethylamino)-1-hydroxyethyl)cyclohexyl)azetidin-3-yl)-2-((6-(trifluoromethyl)quinazolin-4-yl)amino)acetamide], the IC50 was found to be 714 nM.

Take `Cc1ccc([C@]2(O)CC[C@H](N3CC(NC(=O)CNc4ncnc5ccc(C(F)(F)F)cc45)C3)CC2)cn1` [Example 75, N-(1-((1r,4r)-4-hydroxy-4-(6-methylpyridin-3-yl)cyclohexyl)azetidin-3-yl)-2-((6-(trifluoromethyl)quinazolin-4-yl)amino)acetamide]: the IC50 turned out to be 11 nM.

Take `O=C1CCC(N2CC(NC(=O)CNc3ncnc4ccc(C(F)(F)F)cc34)C2)CC1` [Example 103, N-(1-(4-oxocyclohexyl)azetidin-3-yl)-2-((6-(trifluoromethyl)quinazolin-4-yl)amino)acetamide]: the half-maximal inhibitory concentration (IC50) is 530 nM.

As to `CCC(=O)N(C)[C@H]1CC[C@@H](N2CC(NC(=O)CNc3ncnc4ccc(C(F)(F)F)cc34)C2)CC1` [Example 45, N-Methyl-N-((1s,4s)-4-(3-(2-((6-(trifluoromethyl)quinazolin-4-yl)amino)acetamido)azetidin-1-yl)cyclohexyl)propionamide], the IC50 came out at 390 nM.

Turning to `COCC[C@H]1CC[C@@H](N2CC(NC(=O)CNc3ncnc4ccc(C(F)(F)F)cc34)C2)CC1` [Example 121, N-(1-((1s,4s)-4-(2-methoxyethyl)cyclohexyl)azetidin-3-yl)-2-((6-(trifluoromethyl)quinazolin-4-yl)amino)acetamide], the IC50 worked out at 98 nM.

On to `Nc1ccc(C2CCC(N3CC(NC(=O)CNc4ncnc5ccc(C(F)(F)F)cc45)C3)CC2)nc1` (stereo not drawn) [Example 70, N-(1-(4-(5-aminopyridin-2-yl)cyclohexyl)azetidin-3-yl)-2-((6-(trifluoromethyl)quinazolin-4-yl)amino)acetamide], for which the IC50 came out at 9 nM.

As for `CCC(NC(=O)C(F)(F)F)[C@H]1CC[C@@H](N2CC(NC(=O)CNc3ncnc4ccc(C(F)(F)F)cc34)C2)CC1` (stereo partly drawn) [Example 135, 2,2,2-trifluoro-N—((S)-1-((1s,4R)-4-(3-(2-((6-(trifluoromethyl)quinazolin-4-yl)amino)acetamido)azetidin-1-yl)cyclohexyl)propyl)acetamide], the IC50 came out at 2980 nM.

As for `O=C(CNc1cc(C(F)(F)F)nc2ccc(C(F)(F)F)cc12)NC1CN([C@H]2CC[C@@](O)(c3nccs3)CC2)C1` [Example 24, 2-((2,6-bis(trifluoromethyl)quinolin-4-yl)amino)-N-(1((1r-4r)-4-hydroxy-4-(thiazol-2-yl)cyclohexyl)azetidin-3-yl)acetamide], the IC50 was 28 nM.

As for `COCC(O)[C@H]1CC[C@@H](N2CC(NC(=O)CNc3ncnc4ccc(C(F)(F)F)cc34)C2)CC1` (stereo partly drawn) [Example 20, N-(1-((1S,4s)-4-(1-hydroxy-2-methoxyethyl)cyclohexyl)azetidin-3-yl)-2-((6-(trifluoromethyl)quinazolin-4-yl)amino)acetamide], the 50% inhibitory concentration (IC50) stood at 58 nM.

For `CCC(NS(C)(=O)=O)[C@H]1CC[C@@H](N2CC(NC(=O)CNc3ncnc4ccc(C(F)(F)F)cc34)C2)CC1` (stereo partly drawn) [Example 139, N-(1-((1R,4s)-4-((S)-1-(methylsulfonamido)propyl)cyclohexyl)azetidin-3-yl)-2-((6-(trifluoromethyl)quinazolin-4-yl)amino)acetamide], the IC50 is 1450 nM.
